The values that follow come from patent publication US8586556B2, “Methods, compositions and drug delivery systems for intraocular delivery of siRNA molecules” (Allergan, Inc., priority 2006, dated 2013).

The series deals with neovascularization. Nature of the series: Placement of the drug delivery systems into the vitreous of an eye: duration of therapeutic benefit. The series is classed as in vivo. As to conditions: drug delivery system placed into the vitreous of an eye. From the text:
Drug delivery systems which comprise about 86.1 milligrams of Cand5 can be produced similar to those systems described in Examples 1. Such drug delivery systems release Cand5 at a rate from about 49.7 micrograms per day to about 4970 micrograms per day. The release rates can be measured using in vitro and/or in vivo assays as described above. […] Improvements in patient function, such as vision and intraocular pressure, can be observed at longer time periods.
Drug delivery systems which comprise about 86.1 milligrams of siRNA Z can be produced similar to those systems described in Examples 1, above. Such drug delivery systems release siRNA Z at a rate from about 49.7 micrograms per day to about 4970 micrograms per day. The release rates can be measured using in vitro and/or in vivo assays as described above. […] Improvements in patient function, such as vision and intraocular pressure, can be observed at longer time periods.

For “Cand5: siRNA from Acuity Pharmaceuticals/Avecia that silences genes producing VEGF; sense SEQ ID NO: 3, antisense SEQ ID NO: 4 (sense ACCUCACCAAGGCCAGCAC; antisense GUGCUGGCCUUGGUGAGGU; listed as RNA, chemistry not fully specified; listed as Homo Sapiens)”, the “duration of therapeutic benefits, such as the treatment of neovascularization, after a single administration” value is listed as “at least about thirty days”.
